Measured values as given in US20160084820A1, “METHODS OF TREATING OR PREVENTING PERIODONTITIS AND DISEASES ASSOCIATED WITH PERIODONTITIS” (priority 2010, published 2016).
Like-named read-outs stand apart in the source and are kept apart here.

What was measured:
iNOS expression = assay: iNOS expression, quantitative real-time PCR, macrophages; type: cell-based, mouse; conditions: SB216763 10 μM; 8-Br-cAMP 100 μM; 4 hours
Procedure: Gene expression in resting or activated mouse macrophages was quantified using quantitative real-time PCR. Briefly, RNA was extracted from cell lysates using the PerfectPure RNA cell kit (5 Prime, Fisher) and quantified by spectrometry at 260 and 280 nm. The RNA was reverse-transcribed using the High-Capacity cDNA Archive kit (Applied Biosystems) and quantitative real-time PCR with cDNA was performed using the ABI 7500 Fast System, according to the manufacturer's protocol (Applied Biosystems). TaqMan probes, sense primers, and antisense primers for expression of a house-keeping gene (GAPDH) or iNOS (or the genes shown in FIG. 7) were purchased from Applied Biosystems.

nitric oxide production = assay: NO2− (nitric oxide) production, Griess reaction-based assay, macrophages; type: cell-based, mouse; conditions: 24 hours; for reversal of the inhibitory C5a effect on nitric oxide: SQ22536 200 μM, H89 5 μM, chelerythrin 5 μM, PKI 6-22 1 μM, KT5823 1 μM, C5a 50 nM
IL-12p70 production = assay: IL-12p70 induction in IFN-gamma-primed macrophages, ELISA; type: cell-based, mouse; conditions: for reversal of C5a inhibition of P. gingivalis- or LPS-induced IL-12p70: C5a 50 nM
Procedure: (§1) Induction of nitric oxide production was assessed by measuring the amount of NO2− (stable metabolite of nitric oxide) in stimulated culture supernatants using a Griess reaction-based assay kit (R&D Systems), as previously performed (Hajishengallis et al., 2008, PNAS USA, 105:13532-7). Levels of cAMP in activated cell extracts were measured using a cAMP enzyme immunoassay kit (Cayman Chemical) (Liang et al., 2007, J. Immunol., 178:4811-9). C5a-induced intracellular calcium mobilization was monitored in cells (4×10^6) loaded with 1 μM Indo 1-AM in the presence of 1 μM pluronic acid, as previously described (Ali et al., 1993, J. Biol. Chem., 268:24247-54). Calcium traces were recorded in a Perkin-Elmer fluorescence spectrometer (Model 650-19) with an excitation wavelength of 355 nm and an emission wavelength of 405 nm. Induction of cytokine production in activated cell culture supernatants or in the peritoneal fluid of infected mice was determined by ELISA using kits from eBioscience or Cell Sciences. C5a levels were measured by sandwich ELISA, employing a pair of capture and biotinylated anti-05a mAbs (BD Pharmingen), according to the manufacturer's protocol.
Whether C5a inhibits P. gingivalis-induced IL-12p70 in peritoneal macrophages was investigated. Since macrophages are generally poor producers of IL-12p70 in vitro unless primed with IFN-gamma, macrophages used in these experiments were primed with IFN-gamma (0.1 μg/ml). […] The host TLR response against P. gingivalis is predominantly mediated by TLR2, both in vitro and in vivo. Therefore, whether C5a-mediated inhibition of P. gingivalis-induced IL-12p70 could involve a C5aR-TLR2 crosstalk additionally was examined.

[1] = tested on: phagocytosed P. gingivalis in mouse peritoneal macrophages; type: cell-based, P. gingivalis ATCC 33277
Procedure: The viability of phagocytosed P. gingivalis was monitored by an antibiotic protection-based intracellular survival assay, as previously described (Wang et al., 2007, J. Immunol., 179:2349-58). Briefly, mouse peritoneal macrophages were allowed to phagocytose P. gingivalis (MOI=10:1; 5×10^6 bacteria and 5×10^5 cells) for […] at 37° C. This was followed by washing to remove extracellular nonadherent bacteria and 1-hour treatment with antibiotics (300 μg/ml gentamicin and 200 μg/ml metronidazole) to eliminate residual or extracellular adherent bacteria. The macrophages were subsequently cultured overnight (for a total of 24 hours) or for 48 hours Immediately after, the macrophages were washed and lysed in sterile distilled water, and viable counts of internalized P. gingivalis were determined by plating serial dilutions of macrophage lysates on blood agar plates subjected to anaerobic culture.
The viability of phagocytosed P. gingivalis was monitored by an antibiotic protection-based intracellular survival assay, as previously described (Wang et al., 2007, J. Immunol., 179:2349-58)). Briefly, mouse peritoneal macrophages were allowed to phagocytose P. gingivalis (at a MOI=10:1; 5×10^6 bacteria and 5×10^5 macrophages) for 30 min at 37° C. This was followed by washing to remove extracellular nonadherent bacteria and 1-hour treatment with antibiotics (300 μg/ml gentamicin and 200 μg/ml metronidazole) to eliminate residual or extracellular adherent bacteria. The macrophages were subsequently cultured overnight for a total of 24 hours Immediately after, the macrophages were washed and lysed in sterile distilled water and viable counts of internalized P. gingivalis were determined by plating serial dilutions of macrophage lysates on blood agar plates subjected to anaerobic culture.

P. gingivalis [2] = assay: I.p. challenge model: P. gingivalis CFU, NO2− and bacteremia; type: in vivo, mouse
Text: All animal procedures were approved by the Institutional Animal Care and Use Committee and performed in compliance with established federal and state policies.

intracellular cAMP = assay: cAMP enzyme immunoassay in P. gingivalis-stimulated macrophages; type: cell-based, mouse; conditions: C5aRA 1 μM; thapsigargin 1 μM; EGTA 5 mM; pertussis toxin 100 ng/ml; AMD3100 1 μg/ml; C5a 50 nM; 1 hour
[3] = tested on: P. gingivalis-induced cytokine production; conditions: C5aRA i.p. 25 pg/mouse; 5 h post-infection
Procedure: as §1
10-12 week-old mice were infected i.p. with P. gingivalis (5×10^7 CFU) and sampled by peritoneal lavage to measure production of cytokines and enumerate recovered CFU (following anaerobic growth on blood agar plates) (Hajishengallis et al., 2008, PNAS USA, 105:13532-7), as detailed in the respective figure description.
First, it was essential to determine whether C5aR signaling can regulate P. gingivalis-induced IL-12p70 production in vivo. For this purpose, wild-type mice were i.p.-administered C5aRA followed by i.p. challenge with P. gingivalis. Mice deficient in C5aR or TLR2 were similarly challenged with P. gingivalis, and all mice were sampled 5 h post-infection by peritoneal lavage.

P. gingivalis [4] = assay: Subcutaneous titanium-coil chamber model; type: in vivo, mouse; conditions: wild-type mice, 24 h post-infection
Procedure: Using the ‘chamber’ model, bacteria were injected into the lumen of a subcutaneously implanted titanium-coil chamber such that bacterial interactions with recruited inflammatory cells can be assessed accurately and quantitatively (Burns et al., 2006, J. Immunol., 177:8296-8300; Genco et al., 1991, Infect. Immun., 59:1255-63; and Graves et al., 2008, J. Clin. Periodontol., 35:89-105).

[5] = tested on: periodontal inflammatory responses; assay: Oral Pg infection, gingival IL-1beta and TNF-alpha mRNA after local C5aRA microinjection; type: in vivo, mouse
Procedure: Experiments were performed to determine an effective dose of C5aRA (PMX-53) that inhibits periodontal inflammatory responses. Briefly, 0.1, 1, or 10 μg C5aRA (or a PBS control) were administered through 1-μl microinjections (using a 28.5-gauge MicroFine needle) on the mesial of the first molar and in the papillae between first and second and third molars, on both sides of the maxilla. These treatments were repeated five times at two day-intervals Immediately following each treatment, the mice were infected orally with Pg in 2% carboxymethylcellulose vehicle (or vehicle only). One week after the last infection, the gingiva were dissected and analyzed by real-time quantitative PCR for mRNA expression of IL-1beta and TNF-alpha (selected as the most typically involved in destructive periodontal inflammation).
Because the antagonist was applied before each Pg infection treatment, this approach was considered preventive. In addition, however, it was determined if C5aRA acts in a therapeutic way (i.e., applied after infection and inflammation occurs). […] The mice were euthanized three days after the last treatment.

[6] = tested on: GSK3β Ser9-phosphorylation; assay: GSK3β Ser9 phosphorylation ELISA in macrophages; type: cell-based, mouse; conditions: PKI-6-22 1 μM; PD98059 25 μM
Procedure: PKA activity in lysates of activated cells was determined using the ProFluor™ PKA assay, according to the instructions of the manufacturer (Promega) (Hajishengallis et al., 2008, PNAS USA, 105:13532-7). Phosphorylation of GSK313 on Ser9 and total GSK3β were monitored using FACE™ GSK3β ELISA kits (Active Motif).

[7] = pretreatment 1 μM C5aRA and/or 1 mM L-NAME or D-NAME, Pg with C5a 50 nM, 24 hours
[8] = C5aRA 1 μM, U0126 10 μM, wortmannin 100 nM
[9] = 1 pg applied twice weekly, four times, starting 2 weeks after five oral infections
[10] = 1 μg C5aRA microinjection before each of five Pg infections, one week after last infection

Molecule: Cn1cc(C2=C(c3ccc(Cl)cc3Cl)C(=O)NC2=O)c2ccccc21 [SB216763]
- P. gingivalis-induced iNOS expression (iNOS expression): mimicked the inhibitory C5a effect
- P. gingivalis-induced nitric oxide production (nitric oxide production; SB216763 10 μM, 8-Br-cAMP 100 μM): mimicked the inhibitory C5a effect

Molecule: NC(N)=NCCC[C@H](NC(=O)COCC(c1ccccc1)c1ccccc1)C(=O)O [SB290157]
- reversal of the inhibitory effect of C5a^desArg on IL-12p70 (IL-12p70 production): did not influence

Molecule: COC(=O)[C@H](N)CCCN=C(N)N[N+](=O)[O-] [D-NAME, N(G)-nitro-D-arginine methyl ester]
- effect on C5a-protected P. gingivalis intracellular viability [1]: had no effect

Molecule: O=S(=O)(NCCNC/C=C/c1ccc(Br)cc1)c1cccc2cnccc12 [H89]
- reversal of the inhibitory C5a effect on nitric oxide (nitric oxide production): reversed

Molecule: acetylated phenylalanine-(ornithine-proline-(D)cyclohexylalanine-tryptophan-arginine) [C5aRA]
- bacteremia (blood culture for P. gingivalis) (P. gingivalis [2]; 24 hours post-infection): no bacteremia could be detected
- less P. gingivalis CFU in peritoneal lavage fluid compared to PBS control (P. gingivalis [2]; C5aRA i.p. 25 μg/mouse, 24 h post-infection): about 2 log10 units
- reduction of P. gingivalis CFU in peritoneal lavage fluid vs control mice (P. gingivalis [2]; C5aRA i.p. 1 mg/Kg body weight, 24 hours post-infection): > 95%
- nitric oxide production in peritoneal fluid relative to control mice (P. gingivalis [2]; C5aRA i.p., 24 hours postinfection): elevated nitric oxide production
- effect on C5a-protected P. gingivalis intracellular viability [1, 7]: counteracted the protective effect of C5a
- KDP128-induced IL-12p70 in the absence of exogenously added C5a (IL-12p70 production; C5aRA 1 μM): had no effect
- LPS-induced IL-12p70 without C5a (IL-12p70 production; [8]): not seen
- P. gingivalis-induced IL-12p70 without exogenous C5a (IL-12p70 production; [8]): significantly enhanced
- reversal of C5a inhibition of P. gingivalis- or LPS-induced IL-12p70 (IL-12p70 production; [8]): completely reversed
- reversal of the inhibitory effect of C5a^desArg on IL-12p70 (IL-12p70 production; C5a^desArg 50 nM, C5aRA 1 μM, A8^Δ71-73 1 μM, SB290157 5 μM): full reversal
- effect on the synergistic C5a effect on P. gingivalis-induced cAMP (intracellular cAMP): totally abrogated
- IFN-gamma level in peritoneal fluid vs PBS-treated wild-type controls [3]: significantly higher levels
- IL-12p70 level in peritoneal fluid vs PBS-treated wild-type controls [3]: significantly higher levels
- IL-23 level in peritoneal fluid vs PBS-treated wild-type controls [3]: significantly higher levels
- induction of IL-1beta production in peritoneal fluid [3]: inhibited
- induction of IL-6 production in peritoneal fluid [3]: inhibited
- induction of TNF-alpha production in peritoneal fluid [3]: inhibited
- Pg viable counts in chamber fluid (P. gingivalis [4]): reduced Pg viable counts
- induction of IL-1beta mRNA in gingiva, therapeutic [5, 9]: significantly reversed induction
- induction of TNF-alpha mRNA in gingiva, therapeutic [5, 9]: significantly reversed induction
- induction of IL-1beta mRNA in gingiva, preventive [5, 10]: highly effective in inhibiting induction
- induction of TNF-alpha mRNA in gingiva, preventive [5, 10]: highly effective in inhibiting induction
- efficacy of 1 μg dose compared with 10-fold higher dose ([5]; IL-1beta and TNF-alpha mRNA, preventive): not significantly different

Molecule: pertussis toxin
- effect on the synergistic C5a effect on P. gingivalis-induced cAMP (intracellular cAMP): Significant reversal

Molecule: Nc1ncnc2c1ncn2C1CCCO1 (stereo not shown) [SQ22536]
- reversal of the inhibitory C5a effect on nitric oxide (nitric oxide production): reversed

Molecule: COc1cccc(-c2cc(=O)c3ccccc3o2)c1N [PD98059]
- effect on synergistic C5a + P. gingivalis Ser9-phosphorylation of GSK3β [6]: not

Molecule: O=C(O)CN(CCOCCOCCN(CC(=O)O)CC(=O)O)CC(=O)O [EGTA]
- effect on the synergistic C5a effect on P. gingivalis-induced cAMP (intracellular cAMP): relatively minimal and statistically insignificant effect

Molecule: PKI 6-22: peptide inhibitor of PKA
- reversal of the inhibitory C5a effect on nitric oxide (nitric oxide production): reversed
- effect on synergistic C5a + P. gingivalis Ser9-phosphorylation of GSK3β [6]: inhibited

Molecule: c1cc(CN2CCCNCCNCCCNCC2)ccc1CN1CCCNCCNCCCNCC1 [AMD3100]
- effect on the synergistic C5a effect on P. gingivalis-induced cAMP (intracellular cAMP): modestly attenuated

Molecule: N#CC(=C(/N)Sc1ccccc1N)/C(C#N)=C(\N)Sc1ccccc1N [U0126]
- LPS-induced IL-12p70 without C5a (IL-12p70 production): appeared to up-regulate
- P. gingivalis-induced IL-12p70 without exogenous C5a (IL-12p70 production; [8]): appeared to up-regulate
- reversal of C5a inhibition of P. gingivalis- or LPS-induced IL-12p70 (IL-12p70 production; [8]): abrogated

Molecule: C/C=C(/C)C(=O)O[C@H]1C(C)=C2[C@H]([C@@H]1OC(=O)CCCCCCC)[C@@](C)(OC(C)=O)C[C@H](OC(=O)CCC)[C@@]1(O)[C@H]2OC(=O)[C@@]1(C)O [thapsigargin]
- effect on the synergistic C5a effect on P. gingivalis-induced cAMP (intracellular cAMP): abrogated

Molecule: COC(=O)[C@@H](N)CCCNC(=N)N[N+](=O)[O-] [L-NAME, N(G)-nitro-L-arginine methyl ester]
- effect on C5a-protected P. gingivalis intracellular viability [1, 7]: mimicked C5a and overrode the C5aRA effect
